From patent publication US11564964B2, “Compositions and methods for the treatment of coronavirus infection” (priority 2021, dated 2023) come the findings set out here.

By IC50 is commonly meant the concentration needed to halve the response being measured.

Data set [1] deals with SARS-CoV-2 (hCoV-19/Egypt/NRC-3/2020 isolate). The settings on record: for in vitro SARS-CoV-2 testing (activity in words): SARS CoV-2 infected Vero E6 cells; for activity against SARS CoV-2 (in words): (100 μg/mL).
The nature of the next data set: MTT cytotoxicity assay. It is filed as cell-based. The settings on record: African green monkey, Vero E6 cells, read-out: cytotoxicity IC50 against Vero E6 cells. The method, then: Vero-E6 cells with the previously reported (MTT) method^34 were used to test the cytotoxic activity of the test compounds and extracts. In brief, the cells were plated in 96-well plates and incubated for 24 h at 37° C. in 5% CO2 (100 μL/well at a density of 3×10^5 cells/mL). The cells were then treated with different concentrations of extracts/the tested compounds in triplicates. The supernatant was discarded after another 24 h, and cell monolayers were washed three times with sterile 1× PBS. MTT solution was added to each well and then incubated at 37° C. for 4 h. The produced formazan crystals were dissolved with 200 μL of acidified isopropanol (0.04 M HCl in absolute isopropanol=0.073 mL HCL in 50 mL isopropanol). Thereafter, the absorbance of formazan solutions was measured at λmax 540 nm using a multi-well plate reader. The following equation was applied to calculate the percentage of cytotoxicity compared to the untreated cells:
[formula] The produced plot of % cytotoxicity versus sample concentrations was then used to calculate the IC50s. Viral Inhibitory Concentration 50 (IC50) Determination
A general note: Tetrazolium assays rely on reduction of a dye to a coloured formazan, in cell work by metabolically active cells.

The subject of the next data set is SARS-CoV-2 mRNA. Put plainly: Quantitative real time measurement of SARS-CoV-2 mRNA expression (TaqMan RT-PCR) in infected Vero E6 cells. It is filed as cell-based. Conditions: different concentrations, 24 h and 48 h post treatment, normalized to infected untreated cells. The protocol: The RNA extraction of expressed SARS-CoV-2 mRNA in infected treated and untreated cell monolayers was performed using QlAamp Viral RNA Mini Kit according to manufacturer instructions. To assess the viral mRNA expression in infected/treated and infected/untreated Vero E6 cells, TaqMan Real-time RT-PCR assay was performed. Briefly, 100 ng of extracted RNA were mixed with TaqMan primers to quantify SARS-CoV-2 mRNA (targeting […]: HKU-ORF1b-nsp14F: 5′-[…]-3′ (SEQ ID NO: 1), HKU-ORF1b-nsp141P Taqman Probe: 5′-FAM-[…]-TAMRA-3′ (SEQ ID NO: 2), HKU-ORF1b-nsp14R: 5′-[…]-3′ (SEQ ID NO: 3) together with the other components of Verso 1-step RT-qPCR Kit plus Rox (Invitrogen) in recommended volumes (up to 50 μl reaction) and thermal protocol conditions.
To validate our in silico-derived hits, we evaluated their antiviral activity against the clinical SARS-CoV-2 viral isolate in Vero E6 cells. […] Afterwards, the SARS CoV-2 infected Vero E6 cells were incubated with each of the tested compounds at different concentrations. The antiviral activity was then evaluated by determining the viral copy numbers in the cell supernatant via qRT-PCR. […] The poor antiviral activity of other metabolites (>100 μg/mL) might be attributed to their high polarity that could hinder the permeability across the cell membrane^39.
Background: In qPCR the cycle at which signal appears reflects the starting amount.

The test system of data set [2] is SARS-CoV-2 (hCoV-19/Egypt/NRC-3/2020 isolate). The data set is described as follows: microbe, parasite or virus in culture. The settings on record: Severe acute respiratory syndrome coronavirus 2, Vero C1008, read-out: IC50, inhibition of SARS CoV-2 viral replication.

≈ marks a conversion by molar mass, not a printed value.

Take `O=c1cc(-c2ccc(O)cc2)oc2cc(O[C@@H]3O[C@H](CO)[C@@H](O)[C@H](O)[C@H]3O)cc(O)c12` [apigenin 7-O-glucoside]: the “in vitro SARS-CoV-2 testing (activity in words)” value (“in vitro SARS-CoV-2 testing” below) in data set [1] was “inactive”.
Turning to `COc1ccc(C[C@H]2COC(=O)[C@@H]2Cc2ccc(O[C@@H]3O[C@H](CO)[C@@H](O)[C@H](O)[C@H]3O)c(OC)c2)cc1OC` [arctiin], the IC50 at 24 h in the data set “MTT cytotoxicity assay” is over 50 µg/mL. In addition, the “in vitro SARS-CoV-2 testing” value in data set [1] is “inactive”.
Consider `O=c1c(O[C@@H]2O[C@H](CO)[C@@H](O)[C@H](O)[C@H]2O)c(-c2ccc(O)cc2)oc2cc(O)cc(O)c12` [astragalin], for which the IC50 at 24 h in “MTT cytotoxicity assay” was over 50 µg/mL. The “in vitro SARS-CoV-2 testing” value in data set [1] is “inactive”.
As for `C=C1C(=O)O[C@@H]2/C=C(\CO)CC/C=C(\C)C[C@H](OC(=O)C(=C)[C@@H](O)CO)[C@@H]12` [cnicin], the “inhibitory effect on the viral mRNA” value in the data set with SARS-CoV-2 mRNA is on record as “significant viral mRNA inhibition”. Besides, in data set [1] (safety profile, Vero E6 / SARS CoV-2), the “Si=CC50/IC50” value is given as 70.3. Also, the IC50 in data set [2] was 1.18 µg/mL (≈ 3.12 µM).
For `O=c1cc(-c2ccc(O)c(O)c2)oc2cc(O)cc(O)c12` [luteolin], the “activity against SARS CoV-2 (in words)” value in data set [1] is “inactive”.
As to `COc1cc(C[C@H]2COC(=O)[C@]2(O)Cc2ccc(O[C@@H]3O[C@H](CO)[C@@H](O)[C@H](O)[C@H]3O)c(OC)c2)ccc1O` [nortracheloside], in data set [1], the “in vitro SARS-CoV-2 testing” value is “inactive”.
For `CC[C@H](CC[C@@H](C)[C@H]1CC[C@H]2[C@@H]3CC=C4C[C@@H](O[C@@H]5O[C@H](CO)[C@@H](O)[C@H](O)[C@H]5O)CC[C@]4(C)[C@H]3CC[C@]12C)C(C)C` [sitogluside], in data set [1], the “activity against SARS CoV-2 (in words)” value is “inactive”.
